The results in this text go back to patent publication US12564638B2 (SHANGHAITECH UNIVERSITY, priority 2019, dated 2026).

Structures are written as SMILES.

One assay deals with HCC827 cells (EGFR Exon19 del, non-small cell lung cancer cells). As to the kind of experiment: Cell viability assay (WST/CCK8), HCC827 cells. The conditions noted are these: HCC827 cells, 72 hours. Format: cell-based. An excerpt: The cell lines with abnormal EGFR expression used are as follows: • HCC827 cells (EGFR Exon19 del, non-small cell lung cancer cells); • PC9 cells (EGFR Exon 19 del, non-small cell lung cancer cells); • PC9BracA1 (EGFR Exon 19 del+T790M, non-small cell lung cancer cells) • H1975 (EGFR Exon T790M+L858R mutation, non-small cell lung cancer cell line) • BT474 cells (HER2 positive breast cancer cells)
All of the half inhibitory concentrations (IC50) of these compounds of the present invention were determined with WST reagent from Fuyuan Biotec Company. The specific experiment procedures are as follows: Cancer cells were planted in 96-well-plate at the density of 3 000 cells per well with 100 μL RPMI1640 completed culture medium. In the next day, compounds with indicated concentrations were added to the cells, DMSO was used as the negative control and the EGFR TKIs were used to treat cells as the positive groups. After 72 hours drug treatment, cell viability was measured by using the WST reagent following the instructions.
The cells were treated with the gradient concentration of these compounds (the maximum concentration: 10 μM; 3-fold dilution ratio, 10 concentration gradients) for 72 hours and then incubated with the WST (CCK8) reagent to determine the cell viability.
As for `COc1cc2ncnc(Nc3cccc(Cl)c3F)c2cc1OC1CCN(CC(=O)NCCCCSc2cccc3c2CN(C2CCC(=O)NC2=O)C3=O)CC1` (stereo not shown) [SIAIS293067, 2-(4-((4-((3-chloro-2-fluorophenyl)amino)-7-methoxyquinazolin-6-yl)oxy)piperidin-1-yl)-N-(4-((2-(2,6-dioxopiperidin-3-yl)-1-oxoisoindolin-4-yl)thio)butyl)acetamide], the “cell proliferation inhibition (in words)” value was “better than sapitinib on cell killing”.

Still in this assay, the particulars now being: Homo sapiens, HCC827, 72 h, Table 3, poziotinib-based compounds; HCC827 (Exon19 Del); 72 hours; WST (CCK8); read-out: IC50 (half inhibitory concentration).
Regarding `COc1cc2ncnc(Nc3ccc(Cl)c(Cl)c3F)c2cc1OC1CCN(C(=O)CCOCCOCCOCCNc2cccc3c2C(=O)N(C2CCC(=O)NC2=O)C3=O)CC1` (stereo not shown) [SIAIS249031, 4-((2-(2-(2-(3-(4-((4-((3,4-dichloro-2-fluorophenyl)amino)-7-methoxyquinazolin-6-yl)oxy)piperidin-1-yl)-3-oxopropoxy)ethoxy)ethoxy)ethyl)amino)-2-(2,6-dioxopiperidin-3-yl)isoindoline-1,3-dione], the IC50 worked out at 0.0282 µM.
Still for that read-out and setting: in the case of `COc1cc2ncnc(Nc3ccc(Cl)c(Cl)c3F)c2cc1OC1CCN(C(=O)CCOCCOCCOCCOCCNc2cccc3c2C(=O)N(C2CCC(=O)NC2=O)C3=O)CC1` (stereo not shown) [SIAIS249032, 4-((15-(4-((4-((3,4-dichloro-2-fluorophenyl)amino)-7-methoxyquinazolin-6-yl)oxy)piperidin-1-yl)-15-oxo-3,6,9,12-tetraoxapentadecyl)amino)-2-(2,6-dioxopiperidin-3-yl)isoindoline-1,3-dione] it was 0.011 µM; in that of `COc1cc2ncnc(Nc3ccc(Cl)c(Cl)c3F)c2cc1OC1CCN(C(=O)CCCCCCC(=O)N[C@H](C(=O)N2C[C@H](O)C[C@H]2C(=O)NCc2ccc(-c3scnc3C)cc2)C(C)(C)C)CC1` [SIAIS249022, (2S,4R)-1-((S)-2-(8-(4-((4-((3,4-dichloro-2-fluorophenyl)amino)-7-methoxyquinazolin-6-yl)oxy)piperidin-1-yl)-8-oxooctanamido)-3,3-dimethylbutanoyl)-4-hydroxy-N-(4-(4-methylthiazol-5-yl)benzyl)pyrrolidine-2-carboxamide], 0.04 µM; in that of `COc1cc2ncnc(Nc3ccc(Cl)c(Cl)c3F)c2cc1OC1CCN(C(=O)CCCCCCCCC(=O)N[C@H](C(=O)N2C[C@H](O)C[C@H]2C(=O)NCc2ccc(-c3scnc3C)cc2)C(C)(C)C)CC1` [SIAIS249023, (2S,4R)-1-((S)-2-(10-(4-((4-((3,4-dichloro-2-fluorophenyl)amino)-7-methoxyquinazolin-6-yl)oxy)piperidin-1-yl)-10-oxodecanamido)-3,3-dimethylbutanoyl)-4-hydroxy-N-(4-(4-methylthiazol-5-yl)benzyl)pyrrolidine-2-carboxamide], 0.049 µM.
On to `COc1cc2ncnc(Nc3ccc(Cl)c(Cl)c3F)c2cc1OC1CCN(C(=O)CCOCCOCCC(=O)N[C@H](C(=O)N2C[C@H](O)C[C@H]2C(=O)NCc2ccc(-c3scnc3C)cc2)C(C)(C)C)CC1` [SIAIS249025, (2S,4R)-1-((S)-2-(3-(2-(3-(4-((4-((3,4-dichloro-2-fluorophenyl)amino)-7-methoxyquinazolin-6-yl)oxy)piperidin-1-yl)-3-oxopropoxy)ethoxy)propanamido)-3,3-dimethylbutanoyl)-4-hydroxy-N-(4-(4-methylthiazol-5-yl)benzyl)pyrrolidine-2-carboxamide], for which the IC50 was found to be 0.158 µM.
Regarding `COc1cc2ncnc(Nc3ccc(Cl)c(Cl)c3F)c2cc1OC1CCN(C(=O)CCOCCOCCOCCOCCOCCC(=O)N[C@H](C(=O)N2C[C@H](O)C[C@H]2C(=O)NCc2ccc(-c3scnc3C)cc2)C(C)(C)C)CC1` [SIAIS249028, (2S,4R)-1-((S)-2-(tert-butyl)-22-(4-((4-((3,4-dichloro-2-fluorophenyl)amino)-7-methoxyquinazolin-6-yl)oxy)piperidin-1-yl)-4,22-dioxo-7,10,13,16,19-pentaoxa-3-azadocosan-1-oyl)-4-hydroxy-N-(4-(4-methylthiazol-5-yl)benzyl)pyrrolidine-2-carboxamide], the IC50 was 0.24 µM.

Still in this assay, the particulars now being: Homo sapiens, HCC827, 72 h, Table 4, gefitinib and sapitinib-based compounds; HCC827 (Exon19 Del); 72 hours; WST; read-out: IC50 (half inhibitory concentration).
Regarding `COc1cc2ncnc(Nc3ccc(F)c(Cl)c3)c2cc1OCCCN1CCC(N2CCN(CCCCC#Cc3cccc4c3CN(C3CCC(=O)NC3=O)C4=O)CC2)CC1` (stereo not shown) [SIAIS262090, 3-(4-(6-(4-(1-(3-((4-((3-chloro-4-fluorophenyl)amino)-7-methoxyquinazolin-6-yl)oxy)propyl)piperidin-4-yl)piperazin-1-yl)hex-1-yn-1-yl)-1-oxoisoindolin-2-yl)piperidine-2,6-dione], the IC50 is 0.047 µM.
With `COc1cc2ncnc(Nc3cccc(Cl)c3F)c2cc1OC1CCN(CC(=O)NCCCCSc2cccc3c2CN(C2CCC(=O)NC2=O)C3=O)CC1` (stereo not shown) [SIAIS293067, 2-(4-((4-((3-chloro-2-fluorophenyl)amino)-7-methoxyquinazolin-6-yl)oxy)piperidin-1-yl)-N-(4-((2-(2,6-dioxopiperidin-3-yl)-1-oxoisoindolin-4-yl)thio)butyl)acetamide], the IC50 was 0.0003 µM.
For the compound `COc1cc2ncnc(Nc3ccc(F)c(Cl)c3)c2cc1OCCCN1CCN(C(=O)CCCCCSc2cccc3c2CN(C2CCC(=O)NC2=O)C3=O)CC1` (stereo not shown) [SIAIS184186, 3-(4-((6-(4-(3-((4-((3-chloro-4-fluorophenyl)amino)-7-methoxyquinazolin-6-yl)oxy)propyl)piperazin-1-yl)-6-oxohexyl)thio)-1-oxoisoindolin-2-yl)piperidine-2,6-dione], the IC50 turned out to be 0.124 µM.
On to `COc1cc2ncnc(Nc3ccc(F)c(Cl)c3)c2cc1OCCCN1CCN(C(=O)CSc2cccc3c2CN(C2CCC(=O)NC2=O)C3=O)CC1` (stereo not shown) [SIAIS184184, 3-(4-((2-(4-(3-((4-((3-chloro-4-fluorophenyl)amino)-7-methoxyquinazolin-6-yl)oxy)propyl)piperazin-1-yl)-2-oxoethyl)thio)-1-oxoisoindolin-2-yl)piperidine-2,6-dione], for which the IC50 was 0.1 µM.
Regarding `COc1cc2ncnc(Nc3ccc(F)c(Cl)c3)c2cc1OCCCN1CCN(C(=O)CCCSc2cccc3c2C(=O)N(C2CCC(=O)NC2=O)C3=O)CC1` (stereo not shown) [SIAIS184165, 4-((4-(4-(3-((4-((3-chloro-4-fluorophenyl)amino)-7-methoxyquinazolin-6-yl)oxy)propyl)piperazin-1-yl)-4-oxobutyl)thio)-2-(2,6-dioxopiperidin-3-yl)isoindoline-1,3-dione], the IC50 turned out to be 0.058 µM.
Regarding `COc1cc2ncnc(Nc3cccc(Cl)c3F)c2cc1OC1CCN(CC(=O)NCCCCCCSc2cccc3c2CN(C2CCC(=O)NC2=O)C3=O)CC1` (stereo not shown) [SIAIS293068, 2-(4-((4-((3-chloro-2-fluorophenyl)amino)-7-methoxyquinazolin-6-yl)oxy)piperidin-1-yl)-N-(6-((2-(2,6-dioxopiperidin-3-yl)-1-oxoisoindolin-4-yl)thio)hexyl)acetamide], the IC50 is 0.0012 µM.
The same measure, in the same setting: the result for `COc1cc2ncnc(Nc3ccc(F)c(Cl)c3)c2cc1OCCCN1CCNCC1` [Gefitinib derivative A (SIAIS184161), N-(3-chloro-4-fluorophenyl)-7-methoxy-6-(3-(piperazin-1-yl)propoxy)quinazolin-4-amine] reads 0.01 µM.

Still in this assay, the particulars now being: Homo sapiens, HCC827, 72 h, Table 5, afatinib-based compounds; HCC827 (Exon19 Del); 72 hours; WST; read-out: IC50 (half inhibitory concentration).
Regarding `O=C1CCC(N2C(=O)c3cccc(SCCCC(=O)Nc4cc5c(Nc6ccc(F)c(Cl)c6)ncnc5cc4O[C@H]4CCOC4)c3C2=O)C(=O)N1` (stereo partly drawn) [SIAIS184094, N-(4-((3-chloro-4-fluorophenyl)amino)-7-(((S)-tetrahydrofuran-3-yl)oxy)quinazolin-6-yl)-4-((2-(2,6-dioxopiperidin-3-yl)-1,3-dioxoisoindolin-4-yl)thio)butanamide], the IC50 was determined as 0.105 µM.
Consider `O=C1CCC(N2C(=O)c3cccc(SCCOCCOCC(=O)Nc4cc5c(Nc6ccc(F)c(Cl)c6)ncnc5cc4O[C@H]4CCOC4)c3C2=O)C(=O)N1` (stereo partly drawn) [SIAIS184153, N-(4-((3-chloro-4-fluorophenyl)amino)-7-(((S)-tetrahydrofuran-3-yl)oxy)quinazolin-6-yl)-2-(2-(2-((2-(2,6-dioxopiperidin-3-yl)-1,3-dioxoisoindolin-4-yl)thio)ethoxy)ethoxy)acetamide], for which the IC50 came to 0.316 µM.

Staying with this assay, now noted: Homo sapiens, HCC827, 72 h, Table 8, osimertinib-based compounds; HCC827; 72 hours; WST; read-out: IC50 (half inhibitory concentration).
For `C=CC(=O)Nc1cc(Nc2nccc(-c3cn(C)c4ccccc34)n2)c(OC)cc1N(C)CCN(C)C(=O)CSc1cccc2c1CN(C1CCC(=O)NC1=O)C2=O` (stereo not shown) [SIAIS337052, N-(2-((2-(2-((2-(2,6-dioxopiperidin-3-yl)-1-oxoisoindolin-4-yl)thio)-N-methylacetamido)ethyl)(methyl)amino)-4-methoxy-5-((4-(1-methyl-1H-indol-3-yl)pyrimidin-2-yl)amino)phenyl)acrylamide], the IC50 worked out at 0.353 µM.
On to `C=CC(=O)Nc1cc(Nc2nccc(-c3cn(C)c4ccccc34)n2)c(OC)cc1N(C)CCN(C)C(=O)CCCCSc1cccc2c1CN(C1CCC(=O)NC1=O)C2=O` (stereo not shown) [SIAIS337055, N-(2-((2-acrylamido-5-methoxy-4-((4-(1-methyl-1H-indol-3-yl)pyrimidin-2-yl)amino)phenyl)(methyl)amino)ethyl)-5-((2-(2,6-dioxopiperidin-3-yl)-1-oxoisoindolin-4-yl)thio)-N-methylpentanamide], for which the IC50 was found to be 0.461 µM.
Turning to `C=CC(=O)Nc1cc(Nc2nccc(-c3cn(C)c4ccccc34)n2)c(OC)cc1N(C)CCN(C)C(=O)COCCOCCOCCOCCOCCSc1cccc2c1CN(C1CCC(=O)NC1=O)C2=O` (stereo not shown) [SIAIS337078, N-(2-((2-acrylamido-5-methoxy-4-((4-(1-methyl-1H-indol-3-yl)pyrimidin-2-yl)amino)phenyl)(methyl)amino)ethyl)-17-((2-(2,6-dioxopiperidin-3-yl)-1-oxoisoindolin-4-yl)thio)-N-methyl-3,6,9,12,15-pentaoxaheptadecanamide], the IC50 is 0.125 µM.
